One data set concerns mice. Nature of the data set: Sedative effects in mice, physostigmine lethality test. The conditions noted are these: mice. The protocol: In short, physostigmine (1.0 mg/kg to 2.0 mg/kg, s.c.) generally results in 100% lethality when given to groups of mice (10 mice/group) transferred into a small volume of space. Mice administered a sedating drug prior to the physostigmine injection are protected from the stress and survive. In the present study, test compounds were given orally 60 minutes prior to physostigmine injection. The number of surviving (sedated) mice was counted 30 minutes after injection of the physostigmine dose.

Data set [1] deals with histamine-induced wheal response. Nature of the data set: Antihistaminic activity in vivo, intradermal histamine wheal. Also on record: species or system rats. As to conditions: rat, oral 10 mg/kg; versus vehicle baseline. The protocol: Male rats (150-200 g) were fasted overnight and twelve hours after dorsal depilation, the animals were orally pretreated with the test compound(s). Four dorsal test areas were marked with permanent ink, carefully avoiding the area closest to the spine. […] Two intradermal injections of the vehicle for the histamine solution were also performed. […] Twenty minutes were allowed for the wheal response to fully develop, whereupon the animals were euthanized and the dorsal skin with the intradermal wheals were deflected. The blue spotted areas were measured in square millimeters and the duplicate wheal areas were averaged. […] The inhibition was calculated in percent difference from said baseline values.

In data set [2] the test system is human leukocytes (buffy coat). Nature of the data set: Inhibition of A23187-stimulated histamine release from leukocytes. It counts as cell-based. The conditions noted are these: Homo sapiens, Leukocyte, 20 min; A23187 5 μM, 20 min/37° C.; read-out: Inhibition of inflammatory mediator (histamine) release; IC50. The protocol: In these studies, histamine was the marker compound for inflammatory mediators that are released from mast cells and other pro-inflammatory cells in patients with atopic inflammatory diseases. The inhibition of stimulated histamine release from human leukocytes (buffy coat) by test articles was studied. Leukocytes were obtained from healthy volunteers and histamine release was induced by incubation (20 min/37° C.) with the calcium ionophore A23187 (5 μM) in the presence or absence of a test article. Histamine was analyzed by enzyme-immune assays, using commercially available kits and a microplate reader (MRX, Dynatech). The test articles were evaluated, in duplicate, at five concentrations.

In the next data set the test system is rats. Nature of the data set: Acute toxicity, Up-and-Down Procedure. It counts as in vivo. As to conditions: RAT, hydrogen fumarate salts. The protocol: Acute toxicological studies were performed in rats (Sprague-Dawley; M and F; 200-250 grams). The animal-sparing Up-and-Down Procedure (FDA, OECD) was used. Both oral and intravenous toxicity tests were performed.
Both compounds were administered as hydrogen fumarate salts.

Another data set concerns dogs. Nature of the data set: Sedative effects in dogs, cross-over oral dosing. It counts as in vivo. As to conditions: for Frequency of sedation: 20 mg/kg/day oral. The protocol: Sedation studies in dogs were performed according to a cross-over protocol, where the dogs were administered once daily the test articles orally at a dose of 20 mg/kg bodyweight that in a previous toxicology study was marginally toxic in dogs with equal plasma concentrations of R-norketotifen and S-norketotifen.
The test articles were administered in gelatin capsules and vehicle-capsules were empty. All dogs were healthy beagles (four males and two females), age 24-36 months, weighing 7.8-10.6 kg. The dogs were dosed at 9-10 AM and had been fasted overnight before dosing. There was a washout period of at least three days in all dogs between the tests. All assessments of sedation/sleepiness were made by a qualified (D.V.M.) scientist with extensive experience (>15 years) in studies with conscious laboratory dogs. The test articles were in the form of hydrogen fumarate salts.
It had previously been observed that dogs rarely express sedation in response to oral administration of benzocycloheptathiophene compounds on the first day of dosing and the dogs were therefore administered the test articles for three consecutive days.

Another data set concerns croton oil-treated ears. Nature of the data set: Croton oil ear inflammation, systemic (ip) administration. It counts as in vivo. As to conditions: mice, 10 mg/kg ip. The protocol:
In order to investigate the effects of systemic administration of the test compounds in dermal inflammation, a croton oil model was used as is known in the art. This test consists of topical application of 20 μl of 1.0% croton oil to each ear of male mice, weighing 28-32 g. […] Application of the croton oil results in an inflammatory response. The weight of croton oil-treated ears was determined and the percent increase in ear weight is calculated. Test articles were dosed systemically (ip). […] All results represent mean ear weights (±S.E.M.) from 10 ears.

Structures are written as SMILES. pIC50: −log10 of the molar value.

In general, inhibition refers to the percentage by which the read-out fell short of the control. High values mean a response far below the control, low ones a response near the control.

Regarding `Clc1ccc2c(c1)CCc1cccnc1C2=C1CCNCC1` [DESLORATADINE], the Sedated animals in the data set on mice (oral dose 150 mg/kg) is listed as 0/10.
For `CN(C)CCOC(c1ccccc1)c1ccccc1` [DIPHENHYDRAMINE], testing at 10 mg/kg in data set [1] gave an inhibition of 31%. Also, the Sedated animals in the data set with mice (oral dose 50 mg/kg) is 5/10; in the data set on mice (oral dose 100 mg/kg) it was 8/10.
`OCCOCCN1CCN(C(c2ccccc2)c2ccc(Cl)cc2)CC1` (stereo not drawn) [HYDROXYZINE]: the Sedated animals with mice (oral dose 100 mg/kg) is listed as 9/10.
Turning to `CN1CCC(=C2c3ccccc3CC(=O)c3sccc32)CC1` [Ketotifen, 4-(1-methyl-4-piperidyline)-4H-benzo(4,5)-cyclohepta-(1,2-b) thiophene-10-one, reference compound], in data set [2], the pIC50 is 4.04. Further, the “Acute toxicity (estimated LD50)” value in the data set on rats (intravenous) is 5 to 10 mg/kg; in the data set on rats (oral) it was less than 300 mg/kg. For the same molecule, the Frequency of sedation in the data set with dogs (DAY 1) is 0/6; in the data set with dogs (DAY 2), 5/6; in the data set on dogs (DAY 3), 5/6. Further, the “Sedation in dogs (in words)” value with dogs (oral) is “causes sedation in dogs”. Further, the “Average Ear weight ±SEM” value in the data set with croton oil-treated ears (90 min) was found to be 37 ± 1 mg; in the data set on croton oil-treated ears (120 min), 42 ± 1 mg. Besides, the results for the Sedated animals in the data set with mice (oral dose 25 mg/kg), with mice (oral dose 50 mg/kg) and in the data set on mice (oral dose 100 mg/kg) were 5/10, 8/10 and 10/10, respectively.
For the molecule `CCOC(=O)N1CCC(=C2c3ccc(Cl)cc3CCc3cccnc32)CC1` [LORATADINE], in the data set with mice (oral dose 150 mg/kg), the Sedated animals was 1/10.
Consider `COc1ccc(CN(CCN(C)C)c2ccccn2)cc1` [PYRILAMINE], for which the Sedated animals in the data set with mice (oral dose 100 mg/kg) is 8/10.
Take `O=C1Cc2ccccc2C(=C2CCNCC2)c2ccsc21` [R-NORKETOTIFEN]: the Sedated animals with mice (oral dose 100 mg/kg, 100 mg/kg) is recorded as 3/10; with mice (oral dose 150 mg/kg, 150 mg/kg) it was 3/10.
`O=C1Cc2ccccc2C(=C2CCNCC2)c2ccsc21` [S-NORKETOTIFEN]: the Sedated animals in the data set on mice (oral dose 100 mg/kg, 100 mg/kg) was 0/10; with mice (oral dose 150 mg/kg, 150 mg/kg) it was 0/10.
As to `CC(C)(C)c1ccc(C(O)CCCN2CCC(C(O)(c3ccccc3)c3ccccc3)CC2)cc1` (stereo not drawn) [TERFENADINE], the Sedated animals in the data set on mice (oral dose 150 mg/kg) is 0/10.

The values above are taken from patent US8778971B2, “Medicinal treatment of dermal diseases in companion animals” (Bridge Pharma, Inc., priority 2012, dated 2014).
